In PMC3116920, “Mechanisms for the Evolution of a Derived Function in the Ancestral Glucocorticoid Receptor” (PLoS Genetics, 2011):
Substitutions are numbered along the chain they refer to. Like-named read-outs stand apart in the source and are kept apart here. Each block holds one compound with its values, some of them ahead of it.

Experiments:
[1] = molecular target: T1, Leri GR (Leucoraja erinaceus, UniProt Q1KXY4); experiment: cell-based; parameters: species or system CHO-K1; Gal4DBD-LBD UAS-driven luciferase reporter transactivation, Dual-Glo read-out
T1 construct: LBD fused to Gal4 DBD in pSG5; CHO-K1 cells with UAS-luciferase
T1 sequence (Q1KXY4 1-317): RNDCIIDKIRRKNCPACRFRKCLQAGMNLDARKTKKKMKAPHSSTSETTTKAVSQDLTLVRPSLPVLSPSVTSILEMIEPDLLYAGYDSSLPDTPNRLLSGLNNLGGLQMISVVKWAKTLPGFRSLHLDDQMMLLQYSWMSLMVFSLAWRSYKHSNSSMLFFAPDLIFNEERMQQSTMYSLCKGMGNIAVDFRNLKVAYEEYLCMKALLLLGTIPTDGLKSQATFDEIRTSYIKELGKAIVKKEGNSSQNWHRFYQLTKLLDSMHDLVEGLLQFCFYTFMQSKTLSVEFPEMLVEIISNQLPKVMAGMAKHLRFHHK
Protocol: LBDs were cloned as fusion proteins into a pSG5-Gal4DBD expression vector (gift of D. Furlow) and cotransfected using Lipofectamine and Plus Reagents (Invitrogen, Carlsbad, CA) with a UAS-driven luciferase reporter gene (pFRluc) into mammalian cell culture (CHO-K1), and grown in phenol red-free α-MEM plus 10% dextran-charcoal-stripped fetal bovine serum (Hyclone, Logan, UT). Cells were incubated with transfection reagents for four hours, after which they were treated with fresh medium; after recovery, cells were treated in triplicate with hormone or vehicle control, and incubated for one day. Reporter expression was measured using Dual-Glo (Promega, Madison, WI) and dose-response relationships analyzed using Prism4 (GraphPad, La Jolla, CA). Site-directed mutagenesis was carried out using QuickChange II (Stratagene, La Jolla, CA) and clones verified by DNA sequencing. Plausible alternate states were defined as non-maximum likelihood amino acid states with posterior probability >0.20; we reasoned that residues that are present in one or more extant high-sensitivity receptors are the most likely to increase receptor sensitivity, whereas those that are present only in low-sensitivity receptors are unlikely to confer high sensitivity. Each such alternate state was introduced singly into the ML AncGR1.1, and the experimental characterization was repeated. We used a luciferase reporter gene expression assay to characterize the sensitivity of each LBD to four major corticosteroids present in elasmobranchs – 11-deoxycorticosterone (DOC), corticosterone, 1alpha-hydroxycorticosterone, and 11-dehydrocorticosterone, [35]. […] All hormone-activated cartilaginous fish GRs were most sensitive to DOC and corticosterone. The receptors had EC50 values (the hormone concentration required to elicit half-maximal activation) for these steroids in the 10^−8 to 10^−6 M range (Figure 2, Table S1), typical of the EC50s of bony fish GRs for glucocorticoids but two to four orders of magnitude greater than AncCR or the MRs of bony vertebrates. […]

[2] = molecular target: T2, AncCR (synthetic construct, UniProt Z9R9E8A6B0); experiment: luciferase reporter gene activation (Gal4DBD-LBD); assay type: cell-based; conditions: CHO-K1 cells, agonist, one day, triplicate; error is SE
T2 construct: LBD fused to Gal4 DBD in pSG5; CHO-K1 cells with UAS-luciferase
T2 sequence (Z9R9E8A6B0 4-249): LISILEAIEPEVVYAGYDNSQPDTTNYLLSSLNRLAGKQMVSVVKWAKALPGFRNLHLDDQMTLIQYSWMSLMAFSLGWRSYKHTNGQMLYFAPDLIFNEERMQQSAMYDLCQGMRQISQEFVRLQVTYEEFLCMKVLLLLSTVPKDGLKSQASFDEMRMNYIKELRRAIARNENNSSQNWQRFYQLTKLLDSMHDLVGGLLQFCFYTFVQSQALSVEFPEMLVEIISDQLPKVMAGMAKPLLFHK
Excerpt: (§1) luciferase reporter gene activation (Gal4DBD-LBD) on AncCR

[3] = molecular target: T3, AncCR (synthetic construct, UniProt Z9R9E8A6B0, L4M/S74C, form not given); experiment: luciferase reporter gene activation (Gal4DBD-LBD); assay type: cell-based; conditions: CHO-K1 cells, agonist, one day, triplicate; error is SE
T3 construct: LBD fused to Gal4 DBD in pSG5; CHO-K1 cells with UAS-luciferase
T3 sequence (Z9R9E8A6B0 4-249 L4M/S74C): T2 sequence (Z9R9E8A6B0 4-249) with L1M, S71C
Excerpt: as §1

[4] = molecular target: T4, AncCR (synthetic construct, UniProt Z9R9E8A6B0, S74C/A110S, form not given); experiment: luciferase reporter gene activation (Gal4DBD-LBD); assay type: cell-based; conditions: CHO-K1 cells, agonist, one day, triplicate; error is SE
T4 construct: LBD fused to Gal4 DBD in pSG5; CHO-K1 cells with UAS-luciferase
T4 sequence (Z9R9E8A6B0 4-249 S74C/A110S): T2 sequence (Z9R9E8A6B0 4-249) with S71C, A107S
Excerpt: as §1

[5] = molecular target: T5, AncCR (synthetic construct, UniProt Z9R9E8A6B0, S74C, form not given); experiment: luciferase reporter gene activation (Gal4DBD-LBD); assay type: cell-based; conditions: CHO-K1 cells, agonist, one day, triplicate; error is SE
T5 construct: LBD fused to Gal4 DBD in pSG5; CHO-K1 cells with UAS-luciferase
T5 sequence (Z9R9E8A6B0 4-249 S74C): T2 sequence (Z9R9E8A6B0 4-249) with S71C
Excerpt: as §1

[6] = molecular target: T6, AncCR (synthetic construct, UniProt Z9R9E8A6B0, S74C/K86Q, form not given); experiment: luciferase reporter gene activation (Gal4DBD-LBD); assay type: cell-based; conditions: CHO-K1 cells, agonist, one day, triplicate; error is SE
T6 construct: LBD fused to Gal4 DBD in pSG5; CHO-K1 cells with UAS-luciferase
T6 sequence (Z9R9E8A6B0 4-249 S74C/K86Q): T2 sequence (Z9R9E8A6B0 4-249) with S71C, K83Q
Excerpt: as §1

[7] = molecular target: T7, AncCR (synthetic construct, UniProt Z9R9E8A6B0, S74C/Q116K, form not given); experiment: luciferase reporter gene activation (Gal4DBD-LBD); assay type: cell-based; conditions: CHO-K1 cells, agonist, one day, triplicate; error is SE
T7 construct: LBD fused to Gal4 DBD in pSG5; CHO-K1 cells with UAS-luciferase
T7 sequence (Z9R9E8A6B0 4-249 S74C/Q116K): T2 sequence (Z9R9E8A6B0 4-249) with S71C, Q113K
Excerpt: as §1

[8] = molecular target: T8, AncCR (synthetic construct, UniProt Z9R9E8A6B0, S74C/Q214E, form not given); experiment: luciferase reporter gene activation (Gal4DBD-LBD); assay type: cell-based; conditions: CHO-K1 cells, agonist, one day, triplicate; error is SE
T8 construct: LBD fused to Gal4 DBD in pSG5; CHO-K1 cells with UAS-luciferase
T8 sequence (Z9R9E8A6B0 4-249 S74C/Q214E): T2 sequence (Z9R9E8A6B0 4-249) with S71C, Q211E
Excerpt: as §1

[9] = molecular target: T9, AncCR (synthetic construct, UniProt Z9R9E8A6B0, S74C/R119H, form not given); experiment: luciferase reporter gene activation (Gal4DBD-LBD); assay type: cell-based; conditions: CHO-K1 cells, agonist, one day, triplicate; error is SE
T9 construct: LBD fused to Gal4 DBD in pSG5; CHO-K1 cells with UAS-luciferase
T9 sequence (Z9R9E8A6B0 4-249 S74C/R119H): T2 sequence (Z9R9E8A6B0 4-249) with S71C, R116H
Excerpt: as §1

[10] = molecular target: T10, AncCR (synthetic construct, UniProt Z9R9E8A6B0, V46A/R119H, form not given); experiment: luciferase reporter gene activation (Gal4DBD-LBD); assay type: cell-based; conditions: CHO-K1 cells, agonist, one day, triplicate; error is SE
T10 construct: LBD fused to Gal4 DBD in pSG5; CHO-K1 cells with UAS-luciferase
T10 sequence (Z9R9E8A6B0 4-249 V46A/R119H): T2 sequence (Z9R9E8A6B0 4-249) with V43A, R116H
Excerpt: as §1

[11] = molecular target: T11, AncCR (synthetic construct, UniProt Z9R9E8A6B0, V46A/S74C, form not given); experiment: luciferase reporter gene activation (Gal4DBD-LBD); assay type: cell-based; conditions: CHO-K1 cells, agonist, one day, triplicate; error is SE
T11 construct: LBD fused to Gal4 DBD in pSG5; CHO-K1 cells with UAS-luciferase
T11 sequence (Z9R9E8A6B0 4-249 V46A/S74C): T2 sequence (Z9R9E8A6B0 4-249) with V43A, S71C
Excerpt: as §1

[12] = molecular target: T12, AncCR (synthetic construct, UniProt Z9R9E8A6B0, V46A/S74C/R119H, form not given); experiment: luciferase reporter gene activation (Gal4DBD-LBD); assay type: cell-based; conditions: CHO-K1 cells, agonist, one day, triplicate; error is SE
T12 construct: LBD fused to Gal4 DBD in pSG5; CHO-K1 cells with UAS-luciferase
T12 sequence (Z9R9E8A6B0 4-249 V46A/S74C/R119H): T2 sequence (Z9R9E8A6B0 4-249) with V43A, S71C, R116H
Excerpt: as §1

EC50 ([1]; read-out: 1α-B log EC50 (converted)): 2000 nM
SMILES: C[C@]12C[C@H](O)[C@H]3[C@@H](CCC4=CC(=O)C[C@H](O)[C@@]43C)[C@@H]1CC[C@@H]2C(=O)CO [1α-B, 1α-hydroxycorticosterone]

EC50 ([1]; read-out: B log EC50 (converted)): 28.3 nM
SMILES: C[C@]12C[C@H](O)[C@H]3[C@@H](CCC4=CC(=O)CC[C@@]43C)[C@@H]1CC[C@@H]2C(=O)CO [B, corticosterone]

SMILES: C[C@]12CC[C@H]3[C@@H](CCC4=CC(=O)CC[C@@]43C)[C@@H]1CC[C@@H]2C(=O)CO [DOC, 11-deoxycorticosterone]
log EC50 ^b [2]: −10.690 ± 0.64 log10 M
log EC50 ^b [3]: −10.250 ± 0.30 log10 M
log EC50 ^b [4]: −10.350 ± 0.24 log10 M
log EC50 ^b [5]: −10.870 ± 0.34 log10 M
log EC50 ^b [6]: −10.330 ± 0.41 log10 M
log EC50 ^b [7]: −9.773 ± 0.43 log10 M
log EC50 ^b [8]: −10.170 ± 0.43 log10 M
log EC50 ^b [9]: −8.812 ± 0.28 log10 M
log EC50 ^b [10]: −8.387 ± 0.54 log10 M
log EC50 ^b [11]: −8.443 ± 0.15 log10 M
log EC50 ^b [12]: −6.418 ± 0.06 log10 M
EC50 ([1]; read-out: DOC log EC50 (converted)): 305 nM
